Laboratory results taken from PubChem BioAssay AID179 (DTP/NCI, 2004).
Calls of active or inactive are those of the source.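 The calls were made as follows: active = compounds giving half or more protection of infected cells from virus-caused growth loss, again on retest; inactive = the rest.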

Tested on: CEM cells HIV-1 protection, formazan growth assay
Assay: NCI AIDS Antiviral Assay
Settings: for IC50: measured here: growth of uninfected CEM cells
How it was run: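 Screen of anti-HIV-1 activity in human CEM cells using a formazan-based growth measurement at five drug concentrations. Hits with 50% or greater protection were repeated, and confirmation required reproducible complete protection.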

Row | Structure (SMILES) | EC50 | IC50 | outcome
1 | CC1(C)C=Cc2c(cc3oc4ccc5c(c4c(=O)c3c2O)C=CC(C)(C)O5)O1 | 36.3 µM | 50.1 µM | –
2 | CC(C)c1oc2ccccc2c1C(=O)c1ccc(O)cc1 | > 148 µM | 13.2 µM | –
3 | CC1=C(C(=O)NCCCN(CCO)CCO)CC(C(=O)NCCCN(CCO)CCO)=C(C)N1 | > 200 µM | 112 µM | –
4 | COC(=O)c1ccc(CS(=O)(=O)c2ccccc2)cc1 | > 12.9 µM | > 12.9 µM | –
5 | CC(CC/C=C/CO)C1CC(OS(=O)(=O)O)C2(O)C1(C)CCC1C3CCC(O)C(O)C3C(O)CC12O (configuration not stated) | – | – | inactive
6 | Cc1cc(S(=O)(=O)Nc2nnc3ccc4ccccc4n23)c(S)cc1Cl | > 200 µM | 30.9 µM | –
7 | N#Cc1ccc(-c2ccc(Cl)cc2)n(C2OC(CO)C(O)C(O)C2O)c1=S (configuration not stated) | > 200 µM | > 200 µM | –
8 | CC(NC(=O)OC(C)(C)C)C(=O)C(N)=O (configuration not stated) | > 200 µM | > 200 µM | –
9 | Cc1cccc(-c2nnc(-c3nn(-c4ccccc4)c4nc5ccccc5nc34)o2)c1 | > 38.9 µM | 19.5 µM | –
10 | CC1CCCC2=C1C(=O)N(CSCN1C(=O)C3=C(C1=O)C(C)CCC3)C2=O (configuration not stated) | > 200 µM | 141 µM | –
11 | CNC(=O)Nc1ccc(Cl)cn1 | > 200 µM | > 200 µM | –
12 | CN1C(=O)C2(C#N)C3(CCCC3)C2(C#N)C1=O (configuration not stated) | > 43.7 µM | > 43.7 µM | –
13 | CCOC(=O)c1c2cccccc-2nc1Nc1cccc2c(C)ccnc12 | – | – | inactive
14 | Cc1nnc(N2C(=O)C(=Cc3ccc(Cl)cc3)N=C2c2ccc(Cl)cc2)nc1/C=C\c1ccc(N(C)C)cc1 | 47.9 µM | 110 µM | –
15 | NC(C(=O)O)C1=CCCC1 (configuration not stated) | > 200 µM | > 200 µM | –
16 | CC(C)=CCN1c2ccc(Cl)cc2NC(=O)CC1C (configuration not stated) | > 87.1 µM | 49 µM | –
17 | CNc1nc2cc(OC)c(OC)cc2c(=O)[nH]1 | > 200 µM | 191 µM | –
18 | C=C(C)C(CCC(=O)O)(CCC(=O)O)C(C)=O | > 1020 µM | > 1020 µM | –
19 | Nc1ncnc2c1ncn2C1C=CC(COS(N)(=O)=O)C1 (configuration not stated) | > 100 µM | 52.5 µM | –
20 | CC(C)[Si](OCC1CC(C#N)OC(C)(C)O1)(C(C)C)C(C)C (configuration not stated) | > 200 µM | 107 µM | –
21 | COC(=O)c1ccc(N=NN(C)COc2ccc(C#N)cc2)cc1 | > 200 µM | 81.3 µM | –
22 | S=C(Nc1cccc(Cl)c1)Nc1ccccn1 | > 200 µM | > 200 µM | –

Row | Structure (SMILES) | EC50 | IC50 | outcome
23 | Cn1cc(S(=O)(=O)NC(=O)Nc2ccc(Cl)cc2)c(=O)c2ccc(F)cc21 | – | – | inactive
24 | Clc1ccc(CNCCCNCc2ccc(Cl)cc2Cl)c(Cl)c1 | > 200 µM | 22.4 µM | –
25 | COC(=O)CC(=O)/C(=C/C(C/C=C(\C(=O)CC(=O)OC)C(=O)OC)OC)C(=O)OC (configuration not stated) | > 200 µM | > 200 µM | –
26 | CCCCCc1c(CCCC)c(=O)[nH]c2cc(CNCC(OC)OC)ccc12 | > 200 µM | 11 µM | –
27 | N#CC1=C(O)NC(O)=C(C#N)C1c1c(Cl)cccc1Cl | > 427 µM | 27.5 µM | –
28 | CN(C)c1ccc(-c2c(C#N)c(-c3ccccc3)n(NS(=O)(=O)c3ccccc3)c(=O)c2C#N)cc1 | > 200 µM | 13.2 µM | –
29 | NC(=O)NN=C1CSSC1 | 18.6 µM | 70.8 µM | –
30 | COc1ccc(/C=C2\N=C(SC)N(CN3CCOCC3)C2=O)cc1 | > 200 µM | 29.5 µM | –
31 | CC(=O)Nc1cc2cc(NS(=O)(=O)c3ccc(Cl)c(Cl)c3)ccc2oc1=O | > 47.9 µM | > 47.9 µM | –
32 | COC(=O)c1ccc(C)cc1CC1Cc2cc(C)ccc2C1=O (configuration not stated) | > 200 µM | > 200 µM | –
33 | Cc1nn(C(=O)c2ccc(Cl)cc2)c2c1C(/C=C/c1ccccc1)SC(N)=N2 (configuration not stated) | 60.3 µM | 158 µM | –
34 | Cc1c2c(cc3c1C(=O)C(=O)C([C@@H](C)CO)=C3O)C(C)(C)CCC2 | > 200 µM | 15.1 µM | –
35 | O=S1(=O)C[C@@H](O)[C@H](O)CS1 | 16.2 µM | 166 µM | –
36 | COc1ccc(CCNCc2cccc(OC)c2OC)cc1OC | – | – | inactive
37 | COc1ccc(Cn2nc(OCc3ccccc3)c3cc([N+](=O)[O-])ccc32)cc1 | > 200 µM | 25.1 µM | –
38 | Nc1nc(N)c2cc(Sc3ccc4nc(N)nc(N)c4c3)ccc2n1 | > 0.2 µM | 0.0708 µM | –
39 | OCCCCCCCCCCCOc1ccc(C2OCC3(CO2)COC(c2ccc(OCCCCCCCCCCCO)cc2)OC3)cc1 (configuration not stated) | > 50.1 µM | > 50.1 µM | –
40 | CNS(=O)(=O)NNS(=O)(=O)c1cccc([N+](=O)[O-])c1 | > 83.2 µM | > 83.2 µM | –
41 | O=P(CP(=O)(c1ccccc1)c1ccccc1)(c1ccccc1)c1ccccc1.[CH3][Sn]([CH3])([Cl])[Cl] | – | – | inactive
42 | O=C1C2C(C(=O)N1c1ccccc1)C1(c3ccccc3)SC2(c2ccccc2)c2c(-c3ccccc3)sc(-c3ccccc3)c21 (configuration not stated) | – | – | inactive
43 | O=C1NCN(c2ccccc2)C12CCN(Cc1ccccc1)CC2 | > 200 µM | > 200 µM | –
44 | CCOC(=O)C(=O)Cc1cnc2ccccc2n1 | > 53.7 µM | > 53.7 µM | –

Row | Structure (SMILES) | EC50 | IC50 | outcome
45 | CC(C)N(C(=O)C12C3C4C1C1C2C3C41C#N)C(C)C (configuration not stated) | > 513 µM | > 513 µM | –
46 | CC(C)(C)c1cc(C(C)(C)O)c2c(c1)C(C)(C)OS2(C)Cl (configuration not stated) | > 200 µM | 112 µM | –
47 | CNC(=O)Nn1c(SC)nc2ccccc21 | > 200 µM | > 200 µM | –
48 | COc1ccc2c(c1)CSCC2=O | > 513 µM | > 200 µM | –
49 | COC1/C=C/OC2(C)Oc3c(C)c(O)c4c(O)c(cc(OCC(=O)N(C)C5CCCC5)c4c3C2=O)NC(=O)/C(C)=C/C=C/C(C)C(O)C(C)C(O)C(C)C(OC(C)=O)C1C (configuration not stated) | > 200 µM | 28.8 µM | –
50 | O=C1C=CC(=O)N1n1c(-c2ccccc2)n[nH]c1=O | 95.5 µM | 955 µM | –
51 | N#Cc1c(N2CCCC2)[nH]c(=O)n(Cc2ccccc2)c1=S | > 200 µM | 115 µM | –
52 | OC1OC(c2ccco2)C(F)(F)C(F)(F)C1(F)F (configuration not stated) | > 200 µM | 102 µM | –
53 | O=C1NC(c2ccc(O)cc2)C2CCC1C2 (configuration not stated) | > 1150 µM | 955 µM | –
54 | Cc1cc(=O)cc2sc3c(C)cccc3nc1-2 | > 30.2 µM | > 30.2 µM | –
55 | CCCCCCCCOCCS(=O)(=O)O | > 200 µM | > 200 µM | –
56 | Clc1cc2nc3[nH]c4ccccc4c3nc2cc1Cl | > 83.2 µM | > 83.2 µM | –
57 | [N-]=[N+]=NC1CC(n2cc(Cc3ccccc3)c(=O)[nH]c2=O)OC1CO (configuration not stated) | – | – | inactive
58 | CCOC(=O)CSc1c(C(=O)OCC)c(=O)n(-c2ccccc2)c(=S)n1-c1ccccc1 | > 200 µM | 31.6 µM | –
59 | CCN1C2=NCCN2S(=O)(=O)c2ccccc21 | > 1000 µM | 479 µM | –
60 | CCOC(=O)NP(=O)(N1CC1(C)C)N1CC1(C)C (configuration not stated) | 123 µM | > 200 µM | –
61 | C=C(C)C12CC3CC/C(=N/O)C(C1)C3(N1CCOCC1)C/C2=N/O (configuration not stated) | > 200 µM | > 200 µM | –
62 | O=C(CCN1CCCCC1)Nc1ccc2c(c1)C(=O)c1ccc(NC(=O)CCN3CCCCC3)cc1C2=O | > 200 µM | 1.86 µM | –
63 | Nc1c2ccccc2nc2ccc(C(=O)Nc3ccc(S(N)(=O)=O)cc3)cc12 | > 200 µM | > 200 µM | –
64 | C(/C=C/N1CCCC1)=C\c1nc(N2CCCC2)c2ccccc2n1 | > 42.7 µM | 11.5 µM | –
65 | CCCC(C)C[C@@H](C)CC(C)/C=C(\C)c1oc(=O)c(C)c(O)c1C (some centres not stated) (tested in a mixture with another compound) | – | – | inactive
66 | Cc1cccc2c1C/C(=C\c1cccc(C)c1C(=O)O)C2=O | – | – | inactive

Row | Structure (SMILES) | EC50 | IC50 | outcome
67 | CC(NC(=O)Cc1ccccc1)NC(=O)C(C)C(=O)NCc1ccccc1 (configuration not stated) | – | – | inactive
68 | Cc1ccc(S(=O)(=O)N/N=c2\c(C)c(C3=NS(=O)(=O)c4cc(S(N)(=O)=O)c(Cl)cc4N3)oc3c(Cl)cc(Cl)cc23)cc1 | > 69.2 µM | > 69.2 µM | –
69 | CC1=CC(O)(c2ccccc2)C(N2CCOCC2)N1O (configuration not stated) | > 200 µM | > 200 µM | –
70 | CC(=O)N1N=C(C)C2ON=C(c3ccc(Cl)cc3)P21 (configuration not stated) | – | – | inactive
71 | O=c1c(C(c2ccc([N+](=O)[O-])cc2)c2c(O)c3ccccc3n(-c3ccccc3)c2=O)c(O)c2ccccc2n1-c1ccccc1 | > 11.7 µM | > 11.7 µM | –
72 | COc1ccc(C2=[N+]([O-])c3ccccc3C2=O)cc1 | – | – | inactive
73 | O=C(Cc1nc2c3c(ccc2[nH]c1=O)C(=O)c1ccccc1C3=O)C(=O)Nc1ccccc1[N+](=O)[O-] | > 38.9 µM | 10 µM | –
74 | CC(=O)O[C@@H]1CC[C@@]2(C)C(=O)C34C[C@@]5(C)C([C@@H](C)CCCC(C)C)CCC5(C)[C@](O)(O3)C(=O)[C@H]4C2C1(C)C (some centres not stated) | > 18.6 µM | > 18.6 µM | –
75 | O=C(O)CNC(=O)C(CSC(=O)OCC1c2ccccc2-c2ccccc21)NC(=O)CCC(NC(=O)OCC1c2ccccc2-c2ccccc21)C(=O)O (configuration not stated) | > 200 µM | 107 µM | –
76 | C/C(=N\NC(=O)c1ccncc1)c1cccc(F)c1 | > 195 µM | > 195 µM | –
77 | N/N=C(\N)c1ccc(NC(=O)c2ccc(C(=O)Nc3ccc(/C(N)=N/N)cc3)cc2)cc1 | > 200 µM | 93.3 µM | –
78 | Cc1ccc(Cc2nc(=S)[nH][nH]2)cc1 | > 200 µM | 120 µM | –
79 | COc1ccc(-n2cnn3c(=O)c4cn[nH]c4nc23)cc1 | > 200 µM | > 200 µM | –
80 | CC1=C(C(=O)Nc2ccccc2C)C(c2ccc(N(C)C)cc2)C(C(=O)Nc2ccccc2C)=C(C)N1 | > 14.5 µM | > 14.5 µM | –
81 | CC(C)(C)c1cc(C(O)(C(F)(F)F)C(F)(F)F)c2c(c1)C(C(F)(F)F)(C(F)(F)F)OC(c1ccccc1)(C(C)(C)C)N2 (configuration not stated) | – | – | inactive
82 | CN(C)CCCNC(=O)c1c(O)c2ccccc2n(C)c1=O | > 200 µM | 79.4 µM | –
83 | Cc1ccc(-c2nc3ccccc3c(=O)n2NC2OC(CO)C(O)C(O)C2O)cc1 (configuration not stated) | – | – | inactive
84 | C#CCOCn1ccc(=O)[nH]c1=O | > 200 µM | > 200 µM | –
85 | O=C1CCCCC/C1=C\c1ccc([N+](=O)[O-])cc1 | > 200 µM | 25.7 µM | –
86 | N/N=C(/Cc1ccccc1)NNC(N)=S | > 427 µM | 263 µM | –
87 | CCc1cccc(CC)c1Nc1nc2c(s1)C(=O)c1ccccc1C2=O | > 200 µM | 33.1 µM | –
88 | C/C=C/C#CC#CC(O)C(/C=C/CCCO)OC1OC(CO)C(O)C(O)C1O (configuration not stated) | > 158 µM | > 158 µM | –
